Substitutions are numbered along the chain they refer to.
Experiments:
[1] = target: T1, Aldo-keto reductase family 1 member C3 (Homo sapiens, UniProt P42330)
T1 sequence (P42330 whole entry): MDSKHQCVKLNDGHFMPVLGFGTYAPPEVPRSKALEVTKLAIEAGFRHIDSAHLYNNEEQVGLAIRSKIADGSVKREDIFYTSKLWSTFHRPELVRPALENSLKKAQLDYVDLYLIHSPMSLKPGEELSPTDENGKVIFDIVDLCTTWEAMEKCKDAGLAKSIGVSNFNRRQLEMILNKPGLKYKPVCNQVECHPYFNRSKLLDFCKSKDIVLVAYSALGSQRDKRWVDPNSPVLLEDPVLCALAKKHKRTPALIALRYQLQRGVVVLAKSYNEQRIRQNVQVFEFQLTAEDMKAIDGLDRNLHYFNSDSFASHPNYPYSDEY
Description: Inhibition of AKR1C3 (unknown origin) assessed as dehydrogenase activity of enzyme by NADPH fluorescence assay

[2] = target: T2, Aldo-keto reductase family 1 member C4 (Homo sapiens, UniProt P17516); experiment: Inhibition of AKR1C4 (unknown origin) assessed as dehydrogenase activity of enzyme by NADPH fluorescence assay
T2 sequence (P17516 whole entry): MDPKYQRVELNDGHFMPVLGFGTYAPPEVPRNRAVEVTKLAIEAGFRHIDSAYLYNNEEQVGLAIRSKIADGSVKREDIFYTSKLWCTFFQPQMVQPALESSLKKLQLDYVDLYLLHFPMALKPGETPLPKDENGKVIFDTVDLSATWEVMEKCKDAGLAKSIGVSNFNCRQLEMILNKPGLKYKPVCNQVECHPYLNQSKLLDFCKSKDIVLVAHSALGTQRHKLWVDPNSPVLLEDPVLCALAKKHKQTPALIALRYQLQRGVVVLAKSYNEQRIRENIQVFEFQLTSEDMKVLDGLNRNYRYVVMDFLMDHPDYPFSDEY

[3] = target: T3, Aldo-keto reductase family 1 member C1 (Homo sapiens, UniProt Q04828); experiment: Inhibition of AKR1C1 (unknown origin) assessed as dehydrogenase activity of enzyme by NADPH fluorescence assay
T3 sequence (Q04828 whole entry): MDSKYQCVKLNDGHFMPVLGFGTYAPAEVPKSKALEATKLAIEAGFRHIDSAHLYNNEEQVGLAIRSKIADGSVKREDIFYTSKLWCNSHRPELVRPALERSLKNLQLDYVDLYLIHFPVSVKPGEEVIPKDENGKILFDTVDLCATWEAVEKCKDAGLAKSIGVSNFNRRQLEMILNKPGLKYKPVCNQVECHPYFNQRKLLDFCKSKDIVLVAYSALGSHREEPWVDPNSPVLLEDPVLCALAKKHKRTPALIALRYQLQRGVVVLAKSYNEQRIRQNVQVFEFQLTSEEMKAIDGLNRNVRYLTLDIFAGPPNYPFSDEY

[4] = target: T4, Aldo-keto reductase family 1 member C2 (Homo sapiens, UniProt P52895); experiment: Inhibition of AKR1C2 (unknown origin) assessed as dehydrogenase activity of enzyme by NADPH fluorescence assay
T4 sequence (P52895 whole entry): T3 sequence (Q04828 whole entry) with T38V, R47H, L54V, C87S, V151M, R170H, Q172L

[5] = target: T1, Aldo-keto reductase family 1 member C3; experiment: Inhibition of AKR1C3-mediated androsterone metabolism in human A549 cells assessed as 5alpha-androstane-3alpha, 17beta-diol after 24 hrs by LC/MS analysis; format: cell-based

IC50 [1] [nM]	SMILES	further results
540	O=C(O)/C=C/c1ccc(OC(=O)CCc2ccc(F)cc2)c(OCc2cccc(F)c2)c1	
400	O=C(O)/C=C/c1ccc(OC(=O)CCc2cccc(F)c2)c(OCc2cccc(F)c2)c1	
110	O=C(O)/C=C/c1ccc(OC(=O)CCc2ccccc2)c(OCc2cccc(F)c2)c1	
360	O=C(O)/C=C/c1ccc(OC(=O)CCc2ccccc2)c(OCc2cc(F)cc(F)c2)c1	
160	Cc1ccc(COc2cc(/C=C/C(=O)O)ccc2OC(=O)CCc2cccc(F)c2)cc1	
220	O=C(O)/C=C/c1ccc(OC(=O)CCc2ccccc2)c(OCc2ccc(F)cc2)c1	
800	O=C(O)/C=C/c1ccc(OC(=O)CCc2cccc(O)c2)c(OCc2cccc(F)c2)c1	
540	Cc1ccc(COc2cc(/C=C/C(=O)O)ccc2OC(=O)CCc2c(F)cc(F)cc2F)cc1	
910	Cc1ccc(COc2cc(/C=C/C(=O)O)ccc2OC(=O)CCc2cccc(O)c2)cc1	
320	O=C(O)/C=C/c1ccc(OC(=O)CCc2ccccc2)c(OCc2ccccc2F)c1	
20	O=C(O)/C=C/c1ccc(OC(=O)CCc2ccccc2)c(OCc2cccc(O)c2)c1	IC50 [5]: 8000 nM; IC50 [2]: 20000 nM; IC50 [3]: 81000 nM; IC50 [4]: > 100000 nM
840	O=C(O)/C=C/c1ccc(OC(=O)CCc2ccc(O)cc2)c(OCc2cccc(F)c2)c1	
580	O=C(O)/C=C/c1ccc(OC(=O)CCc2c(F)cc(F)cc2F)c(OCc2cccc(F)c2)c1	

The next lines start with the compound.

SMILES	IC50 [1] [nM]	further results
O=C(O)/C=C/c1ccc(OC(=O)CCc2ccccc2)c(OCc2ccccc2)c1	390	
Cc1ccc(COc2cc(/C=C/C(=O)O)ccc2OC(=O)CCc2ccc(O)cc2)cc1	770	
O=C(O)/C=C/c1ccc(OC(=O)CCc2ccccc2)c(OCc2ccc(Cl)cc2)c1	890	
CC(C)Oc1cc(/C=C/C(=O)O)ccc1OC(=O)CCc1ccccc1	3100	
C=C(C)COc1cc(/C=C/C(=O)O)ccc1OC(=O)CCc1ccccc1	850	
CC(C)COc1cc(/C=C/C(=O)O)ccc1OC(=O)CCc1ccccc1	560	
Cc1ccc(COc2cc(/C=C/C(=O)O)ccc2OC(=O)CCc2ccc(F)cc2)cc1	470	
C/C=C/COc1cc(/C=C/C(=O)O)ccc1OC(=O)CCc1ccccc1	1100	
O=C(O)/C=C/c1ccc(OC(=O)CCc2ccccc2)c(OCCc2ccccc2)c1	570	
CCCCOc1cc(/C=C/C(=O)O)ccc1OC(=O)CCc1ccccc1	420	
CCOc1cc(/C=C/C(=O)O)ccc1OC(=O)CCc1ccccc1	970	
COc1cc(/C=C/C(=O)O)ccc1OC(=O)CCc1ccccc1	4500	
COc1cccc(COc2cc(/C=C/C(=O)O)ccc2OC(=O)CCc2ccccc2)c1	960	IC50 [2]: > 100000 nM; IC50 [3]: > 100000 nM; IC50 [4]: > 100000 nM
Cc1ccc(COc2cc(/C=C/C(=O)O)ccc2OC(=O)CCc2ccccc2)cc1	110	
CCCOc1cc(/C=C/C(=O)O)ccc1OC(=O)CCc1ccccc1	2200	
